Test results: publication PMC12007089, “Applying Isothermal Titration Calorimetry and Saturation Transfer Difference-NMR to Study the Mode of Interaction of Flavan-3-ols with α-Amylase to Understand Their Impact on Starch Hydrolysis” (Journal of Agricultural and Food Chemistry, 2025)
Read-outs that look alike come from different tables or passages of the source.

Legend:
[1] = molecular target: T1, porcine pancreatic α-amylase (Sus scrofa, UniProt P00690); test: Interaction studies by isothermal titration calorimetry (ITC); type: binding
T1 sequence (P00690 16-511): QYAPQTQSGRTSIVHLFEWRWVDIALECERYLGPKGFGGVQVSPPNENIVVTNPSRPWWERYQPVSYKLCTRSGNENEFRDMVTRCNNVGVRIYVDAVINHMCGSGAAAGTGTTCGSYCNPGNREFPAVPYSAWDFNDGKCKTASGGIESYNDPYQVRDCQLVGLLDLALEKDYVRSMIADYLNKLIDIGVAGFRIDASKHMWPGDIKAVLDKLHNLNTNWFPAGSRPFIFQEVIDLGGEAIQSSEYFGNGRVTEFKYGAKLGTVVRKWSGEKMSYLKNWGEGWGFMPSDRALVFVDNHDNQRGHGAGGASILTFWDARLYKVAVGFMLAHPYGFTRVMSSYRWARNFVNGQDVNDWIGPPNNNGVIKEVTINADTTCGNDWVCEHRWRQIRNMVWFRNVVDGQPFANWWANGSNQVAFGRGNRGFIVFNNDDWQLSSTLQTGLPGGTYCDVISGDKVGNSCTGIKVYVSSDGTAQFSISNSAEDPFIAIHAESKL
Method: Isothermal titration calorimetry was performed using an Affinity ITC LV with a cell volume of 182 μL (TA Instruments, Eschborn, Germany). Interaction experiments were recorded at 298 K with 0.1 mM rebuffered α-amylase in the sample cell and 4 mM flavan-3-ols in the injection syringe. For each ligand, experiments were performed with 25 injections of 3 μL and a spacing of 200 s between injections. Experiments were carried out in duplicates. Additional measurements were conducted in buffer to ensure that any mixing effects were negligible and that the observed heat development was solely attributed to the interaction studied (S4). In particular, at higher phenolic concentrations, endothermic peaks were observed, arising from the dilution effect.
The data analysis for the interaction studies was conducted using software NanoAnalyze, with manual integration of the peaks. To correct the data for noninteraction-related heats, the mean heat released during the final three injections was subtracted as a constant blank. This procedure is an effective estimation strategy that minimizes errors during the fitting process, provided that the protein is fully saturated.[35] The data were fitted using the “independent” model. To prevent overparametrization, n was set to 1, while Ka and ΔH were maintained as variables, as recommended for low-affinity binding.[35],[36] The stability of the ligand at room temperature was ensured by monitoring the concentrations prior to and following the experiment (S5).

[2] = Stability of ligands in 0.1 M PBS (UV/Vis concentration); type: physicochemical; conditions: for conc.: storage 3,5 h (EC), 22 h (CAT), 15 h (PC B1, PC B2, PC C1); for difference rt and 277 K: same storage times
Method: Flavan-3-ols were dissolved in 0.1 M phosphate buffer containing 0.04 M NaCl at pH 7. Final concentrations were determined by UV/Vis spectroscopy at 298 K (quartz glass cuvette, light path 10 mm, Hellma Analytics, SPECTROstar Nano, BMG Labtech) using the following absorption coefficients ε at 280 nm: CAT, 3340 [L/mol cm]; EC, 3470 [L/mol cm]; PC B1, 6800 [L/mol cm]; […] PC C1, 10,000 [L/mol cm] according to Kaeswurm et al.[33] All ligand solutions were stored at 253 K. The data analysis for the interaction studies was conducted using software NanoAnalyze, with manual integration of the peaks. To correct the data for noninteraction-related heats, the mean heat released during the final three injections was subtracted as a constant blank. This procedure is an effective estimation strategy that minimizes errors during the fitting process, provided that the protein is fully saturated.[35] The data were fitted using the “independent” model. To prevent overparametrization, n was set to 1, while Ka and ΔH were maintained as variables, as recommended for low-affinity binding.[35],[36] The stability of the ligand at room temperature was ensured by monitoring the concentrations prior to and following the experiment (S5).

[3] = 0.1 mM α-amylase, 4 mM flavan-3-ol, phosphate buffer, 298 K, n set to 1
[4] = 0.1 mM α-amylase, 4 mM flavan-3-ol, phosphate buffer, 298 K, n set to 1, read-out: Kd
[5] = ITC, values as restated in the discussion
[6] = phosphate buffer, 298 K, n set to 1

Compound | Ka [1, 3] | Kd [1, 4] | Ka [1, 5] | ΔG [1, 6] | ΔH [1, 6] | ΔS [1, 6] | conc. ([2]; 277 K) | conc. ([2]; room temperature (rt)) | difference rt and 277 K [2] | Kd ([1]; Ka, 0.1 mM α-amylase, 4 mM flavan-3-ol, phosphate buffer, 298 K, n set to 1) | interaction with α-amylase observed by ITC ([1]; 0.1 mM α-amylase, 4 mM ligand, 298 K)
Oc1cc(O)c2c(c1)O[C@H](c1ccc(O)c(O)c1)[C@H](O)C2 [EC, (−)-Epicatechin] | – | 300 µM | – | -4.78 ± 0.048 kcal/mol | -17.2 ± 1.67 kcal/mol | -173±24 J/mol·K | 3,99 ± 0,25 mM | 4,23 ± 0,24 mM | 0,24 mM | 263 µM | –
Oc1cc(O)c2c(c1)O[C@H](c1ccc(O)c(O)c1)[C@H](O)[C@H]2c1c(O)cc(O)c2c1O[C@H](c1ccc(O)c(O)c1)[C@H](O)[C@H]2c1c(O)cc(O)c2c1O[C@H](c1ccc(O)c(O)c1)[C@H](O)C2 [PC C1, procyanidin C1] | – | – | – | – | – | – | 4,60 ± 0,42 mM | 4,29 ± 0,30 mM | 0,31 mM | – | no observable interaction

Further lines, with some results ahead:

Ka [1, 3] | Kd [1, 4] | Ka [1, 5] | ΔG [1, 6] | ΔH [1, 6] | ΔS [1, 6] | conc. ([2]; 277 K) | conc. ([2]; room temperature (rt)) | difference rt and 277 K [2] | Compound | Kd ([1]; Ka, 0.1 mM α-amylase, 4 mM flavan-3-ol, phosphate buffer, 298 K, n set to 1) | interaction with α-amylase observed by ITC ([1]; 0.1 mM α-amylase, 4 mM ligand, 298 K)
1.1±0.1 10^3 M^-1 | 900 µM | 1100 M^–1 | -4.06 ± 0.024 kcal/mol | -5.26 ± 0.359 kcal/mol | -16±5 J/mol·K | 4,28 ± 0,20 mM | 4,10 ± 0,29 mM | 0,18 mM | Oc1cc(O)c2c(c1)O[C@H](c1ccc(O)c(O)c1)[C@H](O)[C@H]2c1c(O)cc(O)c2c1O[C@H](c1ccc(O)c(O)c1)[C@@H](O)C2 [PC B1, procyanidin B1] | – | –
2.1±0.0 10^3 M^-1 | 500 µM | – | -4.54 ± 0 kcal/mol | -12.7 ± 1.1 kcal/mol | – | 3,94 ± 0,24 mM | 4,02 ± 0,21 mM | 0,08 mM | Oc1cc(O)c2c(c1)O[C@H](c1ccc(O)c(O)c1)[C@@H](O)C2 [CAT, (+)-Catechin] | – | –
0.9±0.1 10^3 M^-1 | 1100 ± 100 µM | 900 M^–1 | -4.06 ± 0.048 kcal/mol | -1.9 ± 0.096 kcal/mol | 31±1 J/mol·K | 4,46 ± 0,24 mM | 4,56 ± 0,21 mM | 0,11 mM | Oc1cc(O)c2c(c1)O[C@H](c1ccc(O)c(O)c1)[C@H](O)[C@H]2c1c(O)cc(O)c2c1O[C@H](c1ccc(O)c(O)c1)[C@H](O)C2 [PC B2, procyanidin B2] | – | –
